From patent US6417394B2, “Specific salt forms of triphenylethylene derivatives as selective estrogen receptor modulators” (Bristol Myers Squibb Pharma Company, priority 2000, dated 2002)

Assay: aqueous equilibrium solubility
Format: physicochemical
Conditions: aqueous suspension on a rotator for 48 hours at room temperature; filtered 0.45-micrometer PTFE; HPLC
Procedure: The aqueous equilibrium solubility of 3-[4(1,2-diphenyl-but-1-enyl)-phenyl]-acrylic acid, a SERM compound, and its meglumine and lysine salts were determined by placing aqueous suspensions of the corresponding compound on a rotator for 48 hours at room temperature. The samples were filtered using a 0.45-micrometer PTFE filter and analyzed by HPLC. The pH of the filtrate was also determined.

equilibrium aqueous solubility [µg/mL] | SMILES
8.6 | CCC(=C(c1ccccc1)c1ccc(C=CC(=O)O)cc1)c1ccccc1 [3-[4(1,2-diphenyl-but-1-enyl)-phenyl]-acrylic acid (free aci]
700 | CCC(=C(c1ccccc1)c1ccc(C=CC(=O)O)cc1)c1ccccc1 [3-[4(1,2-diphenyl-but-1-enyl)-phenyl]-acrylic acid (meglumin]
400 | CCC(=C(c1ccccc1)c1ccc(C=CC(=O)O)cc1)c1ccccc1 [3-[4(1,2-diphenyl-but-1-enyl)-phenyl]-acrylic acid (lysine s]
